Data reported in PubChem BioAssay (NCI).
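Test compounds were applied to cells in 96-well plates for 48 hours at 5 doses. TGI: total growth inhibition.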

Tests used:
Assay in all cases: DTP human tumour cell line panel, 48 h
LOX IMVI melanoma = test system: LOX IMVI melanoma
HCT-116 colon = test system: HCT-116 colon
SF-539 CNS = test system: SF-539 CNS
HCC-2998 colon = test system: HCC-2998 colon
NCI-H23 lung = test system: NCI-H23 lung
SF-268 CNS = test system: SF-268 CNS
BT-549 breast = test system: BT-549 breast
KM12 colon = test system: KM12 colon
DU-145 prostate = test system: DU-145 prostate
TK-10 renal = test system: TK-10 renal
MOLT-4 leukemia = test system: MOLT-4 leukemia
SW-620 colon = test system: SW-620 colon
K-562 leukemia = test system: K-562 leukemia
RXF 393 renal = test system: RXF 393 renal
CAKI-1 renal = test system: CAKI-1 renal
OVCAR-3 ovarian = test system: OVCAR-3 ovarian
UACC-257 melanoma = test system: UACC-257 melanoma
T-47D breast = test system: T-47D breast
MDA-MB-435 = test system: MDA-MB-435
PC-3 prostate = test system: PC-3 prostate
NCI-H522 lung = test system: NCI-H522 lung
A549 NSCLC = test system: A549 NSCLC
MALME-3M melanoma = test system: MALME-3M melanoma
SK-OV-3 ovarian = test system: SK-OV-3 ovarian
SK-MEL-5 melanoma = test system: SK-MEL-5 melanoma
SNB-75 CNS = test system: SNB-75 CNS
IGROV1 ovarian = test system: IGROV1 ovarian
SK-MEL-2 melanoma = test system: SK-MEL-2 melanoma
HOP-62 NSCLC = test system: HOP-62 NSCLC
EKVX NSCLC = test system: EKVX NSCLC
SNB-19 CNS = test system: SNB-19 CNS
SF-295 CNS = test system: SF-295 CNS
UACC-62 melanoma = test system: UACC-62 melanoma
UO-31 renal = test system: UO-31 renal
SK-MEL-28 melanoma = test system: SK-MEL-28 melanoma
HL-60(TB) leukemia = test system: HL-60(TB) leukemia
RPMI-8226 leukemia = test system: RPMI-8226 leukemia
NCI-H226 lung = test system: NCI-H226 lung
786-0 renal = test system: 786-0 renal
COLO 205 colon = test system: COLO 205 colon
M14 melanoma = test system: M14 melanoma
OVCAR-5 ovarian = test system: OVCAR-5 ovarian
CCRF-CEM leukemia = test system: CCRF-CEM leukemia
SN12C renal = test system: SN12C renal
SR leukemia = test system: SR leukemia
ACHN renal = test system: ACHN renal
HCT-15 colon = test system: HCT-15 colon
HT29 colon = test system: HT29 colon
MCF7 breast = test system: MCF7 breast
NCI/ADR-RES ovarian = test system: NCI/ADR-RES ovarian
MDA-N = test system: MDA-N
HS 578T breast = test system: HS 578T breast
OVCAR-8 ovarian = test system: OVCAR-8 ovarian
OVCAR-4 ovarian = test system: OVCAR-4 ovarian
U251 CNS = test system: U251 CNS
NCI-H460 lung = test system: NCI-H460 lung
HOP-92 NSCLC = test system: HOP-92 NSCLC
MDA-MB-231 breast = test system: MDA-MB-231 breast
A498 renal = test system: A498 renal

CC(C)CNC(=O)Cn1c(-c2ccccc2)cc2ccccc21
TGI (LOX IMVI melanoma): > 100 µM
TGI (HCT-116 colon): > 100 µM
TGI (SF-539 CNS): > 100 µM
TGI (HCC-2998 colon): > 100 µM
TGI (NCI-H23 lung): > 100 µM
TGI (SF-268 CNS): > 100 µM
TGI (BT-549 breast): > 100 µM
TGI (KM12 colon): > 100 µM
TGI (DU-145 prostate): > 100 µM
TGI (TK-10 renal): > 100 µM
TGI (MOLT-4 leukemia): > 100 µM
TGI (SW-620 colon): > 100 µM
TGI (K-562 leukemia): > 100 µM
TGI (RXF 393 renal): > 100 µM
TGI (CAKI-1 renal): > 100 µM
TGI (OVCAR-3 ovarian): > 100 µM
TGI (UACC-257 melanoma): > 100 µM
TGI (T-47D breast): > 100 µM
TGI (MDA-MB-435): > 100 µM
TGI (PC-3 prostate): > 100 µM
TGI (NCI-H522 lung): > 100 µM
TGI (A549 NSCLC): > 100 µM
TGI (MALME-3M melanoma): > 100 µM
TGI (SK-OV-3 ovarian): > 100 µM
TGI (SK-MEL-5 melanoma): > 100 µM
TGI (SNB-75 CNS): > 100 µM
TGI (IGROV1 ovarian): > 100 µM
TGI (SK-MEL-2 melanoma): > 100 µM
TGI (HOP-62 NSCLC): > 100 µM
TGI (EKVX NSCLC): > 100 µM
TGI (SNB-19 CNS): > 100 µM
TGI (SF-295 CNS): > 100 µM
TGI (UACC-62 melanoma): > 100 µM
TGI (UO-31 renal): > 100 µM
TGI (SK-MEL-28 melanoma): > 100 µM
TGI (HL-60(TB) leukemia): > 100 µM
TGI (RPMI-8226 leukemia): > 100 µM
TGI (NCI-H226 lung): > 100 µM
TGI (786-0 renal): > 100 µM
TGI (COLO 205 colon): > 100 µM
TGI (M14 melanoma): > 100 µM
TGI (OVCAR-5 ovarian): > 100 µM
TGI (CCRF-CEM leukemia): > 100 µM
TGI (SN12C renal): > 100 µM
TGI (SR leukemia): > 100 µM
TGI (ACHN renal): > 100 µM
TGI (HCT-15 colon): > 100 µM
TGI (HT29 colon): > 100 µM
TGI (MCF7 breast): > 100 µM
TGI (NCI/ADR-RES ovarian): > 100 µM
TGI (MDA-N): > 100 µM
TGI (HS 578T breast): > 100 µM
TGI (OVCAR-8 ovarian): > 100 µM
TGI (OVCAR-4 ovarian): > 100 µM
TGI (U251 CNS): > 100 µM
TGI (NCI-H460 lung): > 100 µM

Clc1ccc(N=c2oc3ccccc3cc2-c2nc3ccccc3[nH]2)c(Cl)c1
TGI (LOX IMVI melanoma): > 100 µM
TGI (HCT-116 colon): > 100 µM
TGI (NCI-H23 lung): > 100 µM
TGI (SF-268 CNS): 89.1 µM
TGI (BT-549 breast): > 100 µM
TGI (KM12 colon): > 100 µM
TGI (DU-145 prostate): > 100 µM
TGI (TK-10 renal): 69.9 µM
TGI (MOLT-4 leukemia): > 100 µM
TGI (SW-620 colon): > 100 µM
TGI (K-562 leukemia): > 100 µM
TGI (RXF 393 renal): 41.7 µM
TGI (CAKI-1 renal): > 100 µM
TGI (OVCAR-3 ovarian): > 100 µM
TGI (UACC-257 melanoma): > 100 µM
TGI (T-47D breast): > 100 µM
TGI (MDA-MB-435): > 100 µM
TGI (PC-3 prostate): > 100 µM
TGI (NCI-H522 lung): > 100 µM
TGI (MALME-3M melanoma): > 100 µM
TGI (SK-OV-3 ovarian): > 100 µM
TGI (IGROV1 ovarian): > 100 µM
TGI (HOP-62 NSCLC): 65.1 µM
TGI (EKVX NSCLC): > 100 µM
TGI (SNB-19 CNS): > 100 µM
TGI (SF-295 CNS): > 100 µM
TGI (UACC-62 melanoma): > 100 µM
TGI (UO-31 renal): > 100 µM
TGI (HL-60(TB) leukemia): > 100 µM
TGI (HOP-92 NSCLC): > 100 µM
TGI (RPMI-8226 leukemia): > 100 µM
TGI (M14 melanoma): > 100 µM
TGI (OVCAR-5 ovarian): > 100 µM
TGI (CCRF-CEM leukemia): > 100 µM
TGI (SR leukemia): > 100 µM
TGI (ACHN renal): > 100 µM
TGI (HCT-15 colon): > 100 µM
TGI (HT29 colon): > 100 µM
TGI (NCI/ADR-RES ovarian): > 100 µM
TGI (MDA-N): > 100 µM
TGI (HS 578T breast): 78.3 µM
TGI (OVCAR-8 ovarian): > 100 µM
TGI (OVCAR-4 ovarian): > 100 µM

Cn1nc(S(N)(=O)=O)s/c1=N/C(N)=S
TGI (LOX IMVI melanoma): > 100 µM
TGI (HCT-116 colon): > 100 µM
TGI (SF-539 CNS): > 100 µM
TGI (HCC-2998 colon): > 100 µM
TGI (NCI-H23 lung): > 100 µM
TGI (SF-268 CNS): > 100 µM
TGI (BT-549 breast): > 100 µM
TGI (KM12 colon): > 100 µM
TGI (DU-145 prostate): > 100 µM
TGI (TK-10 renal): > 100 µM
TGI (MOLT-4 leukemia): > 100 µM
TGI (SW-620 colon): > 100 µM
TGI (K-562 leukemia): > 100 µM
TGI (RXF 393 renal): > 100 µM
TGI (CAKI-1 renal): > 100 µM
TGI (OVCAR-3 ovarian): > 100 µM
TGI (MDA-MB-231 breast): > 100 µM
TGI (UACC-257 melanoma): > 100 µM
TGI (T-47D breast): > 100 µM
TGI (MDA-MB-435): > 100 µM
TGI (NCI-H522 lung): > 100 µM
TGI (A549 NSCLC): > 100 µM
TGI (MALME-3M melanoma): > 100 µM
TGI (SK-OV-3 ovarian): > 100 µM
TGI (SK-MEL-5 melanoma): > 100 µM
TGI (SK-MEL-2 melanoma): > 100 µM
TGI (HOP-62 NSCLC): > 100 µM
TGI (EKVX NSCLC): > 100 µM
TGI (SNB-19 CNS): > 100 µM
TGI (SF-295 CNS): > 100 µM
TGI (UACC-62 melanoma): > 100 µM
TGI (UO-31 renal): > 100 µM
TGI (SK-MEL-28 melanoma): > 100 µM
TGI (HL-60(TB) leukemia): > 100 µM
TGI (HOP-92 NSCLC): > 100 µM
TGI (RPMI-8226 leukemia): > 100 µM
TGI (NCI-H226 lung): > 100 µM
TGI (786-0 renal): > 100 µM
TGI (COLO 205 colon): > 100 µM
TGI (M14 melanoma): > 100 µM
TGI (OVCAR-5 ovarian): > 100 µM
TGI (CCRF-CEM leukemia): > 100 µM
TGI (SN12C renal): > 100 µM
TGI (SR leukemia): > 100 µM
TGI (ACHN renal): > 100 µM
TGI (HCT-15 colon): > 100 µM
TGI (HT29 colon): > 100 µM
TGI (MCF7 breast): > 100 µM
TGI (NCI/ADR-RES ovarian): > 100 µM
TGI (MDA-N): > 100 µM
TGI (A498 renal): > 100 µM
TGI (HS 578T breast): > 100 µM
TGI (OVCAR-8 ovarian): > 100 µM
TGI (OVCAR-4 ovarian): > 100 µM
TGI (U251 CNS): > 100 µM
TGI (NCI-H460 lung): > 100 µM

O=C(N[C@H]1c2ccsc2/C(=N/O)[C@H]1O)C(F)(F)F
TGI (LOX IMVI melanoma): > 100 µM
TGI (HCT-116 colon): > 100 µM
TGI (SF-539 CNS): > 100 µM
TGI (HCC-2998 colon): > 100 µM
TGI (NCI-H23 lung): > 100 µM
TGI (SF-268 CNS): > 100 µM
TGI (BT-549 breast): > 100 µM
TGI (DU-145 prostate): > 100 µM
TGI (TK-10 renal): > 100 µM
TGI (MOLT-4 leukemia): > 100 µM
TGI (SW-620 colon): > 100 µM
TGI (K-562 leukemia): > 100 µM
TGI (RXF 393 renal): > 100 µM
TGI (CAKI-1 renal): > 100 µM
TGI (OVCAR-3 ovarian): > 100 µM
TGI (UACC-257 melanoma): > 100 µM
TGI (T-47D breast): > 100 µM
TGI (MDA-MB-435): > 100 µM
TGI (PC-3 prostate): > 100 µM
TGI (A549 NSCLC): > 100 µM
TGI (MALME-3M melanoma): > 100 µM
TGI (SK-OV-3 ovarian): > 100 µM
TGI (SK-MEL-5 melanoma): > 100 µM
TGI (SNB-75 CNS): > 100 µM
TGI (IGROV1 ovarian): > 100 µM
TGI (SK-MEL-2 melanoma): > 100 µM
TGI (HOP-62 NSCLC): > 100 µM
TGI (EKVX NSCLC): > 100 µM
TGI (SNB-19 CNS): > 100 µM
TGI (SF-295 CNS): > 100 µM
TGI (UACC-62 melanoma): > 100 µM
TGI (UO-31 renal): > 100 µM
TGI (SK-MEL-28 melanoma): > 100 µM
TGI (HL-60(TB) leukemia): > 100 µM
TGI (HOP-92 NSCLC): > 100 µM
TGI (NCI-H226 lung): > 100 µM
TGI (COLO 205 colon): > 100 µM
TGI (M14 melanoma): > 100 µM
TGI (OVCAR-5 ovarian): > 100 µM
TGI (CCRF-CEM leukemia): > 100 µM
TGI (SN12C renal): > 100 µM
TGI (SR leukemia): > 100 µM
TGI (HCT-15 colon): > 100 µM
TGI (HT29 colon): > 100 µM
TGI (MCF7 breast): > 100 µM
TGI (NCI/ADR-RES ovarian): > 100 µM
TGI (MDA-N): > 100 µM
TGI (A498 renal): > 100 µM
TGI (HS 578T breast): > 100 µM
TGI (OVCAR-8 ovarian): > 100 µM
TGI (U251 CNS): > 100 µM
TGI (NCI-H460 lung): > 100 µM
